# Data reported in US7687465B2, “Therapeutic cancer vaccine” (Kraeftens Bekaempelse, priority 2003, dated 2010).
# System: PBL from HLA-A3 antigen positive melanoma patients
# Assay: ELISPOT in PBL from HLA-A3 antigen positive melanoma patients
# Assay type: cell-based, human
# Description: T-cell response against the ML-IAP245-253 ([…]) peptide as measured in an ELISPOT in PBL from 14 melanoma patients. T-lymphocytes were stimulated once with peptide before plated in triplicates either without or with peptide. The average number of peptide specific cells (after subtraction of spots without added peptide) was calculated for each patient as the number of spot forming cells per 10^5 CD8 positive cells after subtraction of the number of background spots formed without addition of peptide using the ImmunoSpot® Series 2.0 Analyzer (CTL Analyzers, LLC, Cleveland, US).
# To extend the sensitivity of the ELISPOT assay, PBL were stimulated once in vitro prior to analysis^17,18. At day 0, PBL or crushed lymph nodes were thawed and plated in 2 ml/well at a concentration of 2×10^6 cells in 24-well plates (Nunc, Denmark) in X-vivo medium (Bio Whittaker, Walkersville, Md.), 5% heat-inactivated human serum, and 2 mM of L-glutamine in the presence of 10 μM of peptide. […]
# The ELISPOT assay used to quantify peptide epitope-specific interferon-γ-releasing effector cells was performed as described previously^19. […] The spots were counted using the AlphaImager System (Alpha Innotech, San Leandro, Calif. USA) and the peptide specific CTL frequency could be calculated from the numbers of spot-forming cells. […]
sequence,measurement,setting,value
RLQEERTCK (listed as Homo sapiens) [mL-IAP245-253],peptide specific T-cells per 10^5 CD8+ cells,in the five responding patients,more than 200 per 10^5 CD8+ cells
same,patients hosting an immune response against the peptide,"of 14 HLA-A3 antigen positive melanoma patients, response of more than 200 specific T-cells per 10^5 CD8+ cells",five
